Source: patent publication EP2522328A1, “Use of resveratrol and ascorbyl-2-glucoside” (DSM IP Assets B.V., priority 2011, dated 2012)

Test system: AZGP1
Test: Assessment of gene modulation in normal human epidermal melanocytes (NHEM), RT-qPCR on mRNA (PCR array mQPA H-Melanocyte-64)
Type: cell-based
Conditions: ascorbyl-2-glucoside 1 mg/ml
Description: Normal human epidermal melanocytes were cultivated for 24 hours. […] Cells were cultivated for additional 72 hours. All experimental conditions were performed in triplicate. At the end of the cultivation, the cells were harvested and washed with phosphate buffered saline (PBS) solution and immediately frozen at -80 °C. The expression of selected markers was analyzed using RT-qPCR method on mRNA extracted from cells layer for each treatment condition. The differential expression analysis was performed by PCR arrays of the screening format "mQPA H-Melanocyte-64", which focuses on 64 genes selected for their importance in pigmentation and melanocyte biology. Total RNA was extracted from each sample using TRI-Reagent®. The amount and quality of the RNA was evaluated using a lab-on-a-chip Bioanalyzer (Agilent technologies). Potential contaminants traces of DNA were removed […] The incorporation of fluorescence in amplified DNA was measured continuously during the PCR cycles. […] The value selected for RE calculations is the "output point" (Ct) of the fluorescence curve. For a given marker, the highest is the cycle number; the lowest, is the mRNA quantity. The RE value is expressed in arbitrary units (AU) according to the equation: (((1)/(2)))^NC x 10^6 [formula] Where NC is the number of cycles.

O=C1O[C@H]([C@@H](O)CO)C(O)=C1O[C@H]1O[C@H](CO)[C@@H](O)[C@H](O)[C@H]1O [Ascorbyl-2-glucoside, 2-O-[…]-D-glucopyranosyl-L-Ascorbic acid]
activation at 1000 µg/mL (Homo sapiens, Melanocyte, NHEM cells, 72 hours treatment, resveratrol 5 µg/ml, combination 5 µg/ml + 1 mg/ml, read-out: expression ratio compared to control for the gene AZGP1): 3%
down-regulation of AZGP1 (compared to untreated cells, NEHM cells, resveratrol 5 micrograms/ml, combination 5 microg/ml + 1mg/ml): no significant modulation
